This note sets out measurements from article PMC11373624, “Development and preclinical characterization of a novel radiotheranostic EphA2-targeting bicyclic peptide” (Theranostics, 2024).

The term Kd denotes the constant that tells how readily two partners part at equilibrium.

Numbered stars: 1 amine (or outer) side, 2 acyl side, 3 side chain; on linkers, the order of the positions; unused ones are H or OH. Bridge positions count the residues as written; N and C are the ends. Square brackets hold non-standard residues; d marks the D form. Peptide text beside a SMILES is read from it. * marks the point of attachment. DOTA = O=C(O)CN1CCN(CC(=O)O)CCN(CC(=O)*)CCN(CC(=O)O)CC1; TATA = O=C(CC[*:1])N1CN(C(=O)CC[*:2])CN(C(=O)CC[*:3])C1; Hyp = O=C(O)[C@@H]1C[C@@H](O)CN1; hArg = N=C(N)NCCCC[C@H](N)C(=O)O; Cba = N[C@@H](CC1CCC1)C(=O)O; βAla = NCCC(=O)O; Sar = CNCC(=O)O Some results are limits rather than exact numbers.

One experiment addresses T1, Human EphA3 (Homo sapiens, UniProt P29320).
T1 construct: purchased R&D Systems 644-A3
Description: SPR homologue panel, EphA3. The note with it: human EphA3, n=1; read-out: KD, no binding up to. The procedure:
(§1) The commercial source details of the recombinant proteins used in SPR were as follows: Human proteins: EphA1 (15789-H02H, Sino Biological), EphA3 (644-A3, R&D Systems), EphA6 (5606-A6, R&D Systems), EphA7 (6756-A7, R&D Systems). Mouse proteins: Mouse EphA2 was purchased from R&D Systems (Product number 639-A2). Mouse EphA2-Fc was resuspended as per manufacturer's recommendations and material was passed through a SuperdexS200 column to remove aggregates.
(§2) SPR experiments were performed on a Biacore 8K+ (Cytiva Life Sciences, USA) instrument, with methods matched for both human and mouse EphA2 protein. Protein was captured on to a Cytiva NTA sensor chip (Cytiva Life Sciences), via the expressed His-tag; this was followed by primary amine coupling chemistry to covalently immobilize the protein to the chip at 25°C. Initially the surface was injected with 0.5 mM NiCl2 for 2 minutes, followed by activation of the carboxymethyl dextran surface for 7 minutes using an injection of a 1:1 ratio of 0.4 M 1-ethyl-3-(3-dimethylaminopropyl) carbodiimide hydrochloride (EDC)/0.1 M N-hydroxy succinimide (NHS) at a flow rate of 10 µL/min.
(§3) Peptide was prepared in PBS/0.05% Tween 20 with a final DMSO concentration of 0.5%. The top peptide concentration was 100 or 500 nM and 5 further 3-fold dilutions. […]

A further experiment has as its target T2, Human EphA2 (Homo sapiens, UniProt P29317).
T2 construct: Human EphA2 (residues 27-529) was cloned into pEXPR-IBA44; made in house; host or cells: HEK293 f/s cells
In words: SPR binding to human EphA2. The method, then:
Human EphA2 (residues 27-529) was cloned into pEXPR-IBA44 between the 5' NheI and 3' BsaI sites to make constructs expressing a BM40 signal sequence and C-terminal 6xHIS tag. For the expression and purification of the protein, HEK293 f/s cells at 1 x 10^6/mL in freestyle media (Thermo Fisher) were transfected with 1 µg DNA per million cells by PEI either 2:1 or 3:1 PEI:DNA ratio. On day 2 valproic acid was added to a 2.2 mM concentration. The supernatant was harvested 5 days post transfection and loaded on a 1 ml Ni-NTA agarose resin (Thermo Fisher) (wash buffer: 20 mM HEPES pH 7.6, 0.5 M NaCl, 5 mM imidazole, 0.01% Tween-20 buffer; elution buffer: 20 mM HEPES pH 7.6, 0.5 M NaCl, 300 mM imidazole, 0.01% Tween-20). The protein was concentrated to a volume of 2 mL, loaded onto an S-200 Superdex column (GE Healthcare) and eluted with 20 mM HEPES pH 7.6, 150 mM NaCl, 0.01% Tween-20 at a flow rate of 1 mL/min. Fractions were collected and those containing human EphA2 protein were concentrated for further use.
as §2
Human EphA2 protein was captured to the Ni-NTA surface to a level of 200-300 RU and Mouse EphA2 to 500-800 RU; the residual activated groups were then blocked with a 7 minute injection of 1 M ethanolamine (pH 8.5):HBS-N (1:1). Finally, the Ni-NTA surface was chelated with a 1-minute injection of 350 mM EDTA.
Peptide was prepared in PBS/0.05% Tween 20 with a final DMSO concentration of 0.5%. The top peptide concentration was 100 or 500 nM and 5 further 3-fold dilutions. The peptide was titrated over the chip using single cycle kinetics at 25°C at a flow rate of 75 µL/min with 60 second association and 4000 second dissociation. All data were double referenced for blank injections and reference surface using standard processing procedures. Data was characterized with a 1:1 kinetic binding model to determine kinetic rate constants ka (M^-1s^-1) and kd (s^-1) and equilibrium dissociation constant KD (nM). All data processing was performed using Cytiva Insight Evaluation (Cytiva Life Sciences, USA).

The target of another experiment is T3, Human EphA6 (Homo sapiens, UniProt Q9UF33).
T3 construct: purchased R&D Systems 5606-A6
T3 sequence (Q9UF33 23-1036): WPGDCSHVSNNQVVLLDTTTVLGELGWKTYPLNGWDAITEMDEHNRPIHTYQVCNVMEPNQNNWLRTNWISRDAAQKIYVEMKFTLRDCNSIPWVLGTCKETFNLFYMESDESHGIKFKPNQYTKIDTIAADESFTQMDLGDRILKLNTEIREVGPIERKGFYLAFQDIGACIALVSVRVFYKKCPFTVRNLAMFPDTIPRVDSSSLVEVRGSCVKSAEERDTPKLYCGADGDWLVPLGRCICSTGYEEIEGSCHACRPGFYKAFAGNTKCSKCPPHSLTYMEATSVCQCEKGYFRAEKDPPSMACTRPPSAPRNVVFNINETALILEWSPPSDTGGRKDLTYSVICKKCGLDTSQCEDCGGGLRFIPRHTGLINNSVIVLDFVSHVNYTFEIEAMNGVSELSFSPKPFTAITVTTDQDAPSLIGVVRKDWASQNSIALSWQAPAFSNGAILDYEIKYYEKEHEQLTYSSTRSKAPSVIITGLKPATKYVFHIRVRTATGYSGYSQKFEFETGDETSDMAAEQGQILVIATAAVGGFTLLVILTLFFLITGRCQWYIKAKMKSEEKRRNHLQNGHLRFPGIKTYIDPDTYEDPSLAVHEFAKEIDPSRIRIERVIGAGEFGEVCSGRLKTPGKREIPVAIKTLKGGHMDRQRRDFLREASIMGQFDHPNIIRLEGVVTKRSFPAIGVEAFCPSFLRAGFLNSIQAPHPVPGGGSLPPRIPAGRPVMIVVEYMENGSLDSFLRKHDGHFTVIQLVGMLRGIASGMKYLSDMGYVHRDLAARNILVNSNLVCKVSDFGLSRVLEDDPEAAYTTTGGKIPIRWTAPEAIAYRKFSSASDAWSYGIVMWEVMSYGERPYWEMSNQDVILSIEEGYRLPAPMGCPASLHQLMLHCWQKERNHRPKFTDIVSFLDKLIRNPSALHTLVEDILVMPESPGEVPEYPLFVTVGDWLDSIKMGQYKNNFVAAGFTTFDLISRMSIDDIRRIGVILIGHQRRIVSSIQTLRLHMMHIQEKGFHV
Description: SPR homologue panel, EphA6. The note with it: human EphA6, n=1; read-out: KD, no binding up to. The method, then:
as §1, §2, §3

The next experiment deals with T4, Human EphA7 (Homo sapiens, UniProt Q15375).
T4 construct: purchased R&D Systems 6756-A7
In words: SPR homologue panel, EphA7. The following applies: human EphA7, n=1; read-out: KD, no binding up to. The procedure:
as §1, §2, §3

A further experiment has as its target Human EphA5 (Homo sapiens, UniProt P54756). In words: SPR homologue panel, EphA5. The note with it: human EphA5, n=1; read-out: KD, no binding up to.

T2 sequence (P29317 27-529): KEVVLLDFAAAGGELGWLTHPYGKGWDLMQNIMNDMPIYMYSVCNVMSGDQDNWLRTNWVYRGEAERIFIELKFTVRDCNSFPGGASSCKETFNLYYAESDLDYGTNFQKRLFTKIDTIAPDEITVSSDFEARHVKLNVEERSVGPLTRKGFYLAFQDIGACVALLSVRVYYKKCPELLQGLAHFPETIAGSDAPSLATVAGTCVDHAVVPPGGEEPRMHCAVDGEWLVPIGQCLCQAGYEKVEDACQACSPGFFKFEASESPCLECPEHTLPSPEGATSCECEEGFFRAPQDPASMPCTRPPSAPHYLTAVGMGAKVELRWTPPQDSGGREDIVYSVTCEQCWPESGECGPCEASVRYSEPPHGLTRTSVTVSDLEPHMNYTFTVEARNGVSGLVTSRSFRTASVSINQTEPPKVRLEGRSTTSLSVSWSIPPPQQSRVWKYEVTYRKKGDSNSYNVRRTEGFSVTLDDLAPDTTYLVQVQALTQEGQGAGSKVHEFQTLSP
T4 sequence (Q15375 28-998): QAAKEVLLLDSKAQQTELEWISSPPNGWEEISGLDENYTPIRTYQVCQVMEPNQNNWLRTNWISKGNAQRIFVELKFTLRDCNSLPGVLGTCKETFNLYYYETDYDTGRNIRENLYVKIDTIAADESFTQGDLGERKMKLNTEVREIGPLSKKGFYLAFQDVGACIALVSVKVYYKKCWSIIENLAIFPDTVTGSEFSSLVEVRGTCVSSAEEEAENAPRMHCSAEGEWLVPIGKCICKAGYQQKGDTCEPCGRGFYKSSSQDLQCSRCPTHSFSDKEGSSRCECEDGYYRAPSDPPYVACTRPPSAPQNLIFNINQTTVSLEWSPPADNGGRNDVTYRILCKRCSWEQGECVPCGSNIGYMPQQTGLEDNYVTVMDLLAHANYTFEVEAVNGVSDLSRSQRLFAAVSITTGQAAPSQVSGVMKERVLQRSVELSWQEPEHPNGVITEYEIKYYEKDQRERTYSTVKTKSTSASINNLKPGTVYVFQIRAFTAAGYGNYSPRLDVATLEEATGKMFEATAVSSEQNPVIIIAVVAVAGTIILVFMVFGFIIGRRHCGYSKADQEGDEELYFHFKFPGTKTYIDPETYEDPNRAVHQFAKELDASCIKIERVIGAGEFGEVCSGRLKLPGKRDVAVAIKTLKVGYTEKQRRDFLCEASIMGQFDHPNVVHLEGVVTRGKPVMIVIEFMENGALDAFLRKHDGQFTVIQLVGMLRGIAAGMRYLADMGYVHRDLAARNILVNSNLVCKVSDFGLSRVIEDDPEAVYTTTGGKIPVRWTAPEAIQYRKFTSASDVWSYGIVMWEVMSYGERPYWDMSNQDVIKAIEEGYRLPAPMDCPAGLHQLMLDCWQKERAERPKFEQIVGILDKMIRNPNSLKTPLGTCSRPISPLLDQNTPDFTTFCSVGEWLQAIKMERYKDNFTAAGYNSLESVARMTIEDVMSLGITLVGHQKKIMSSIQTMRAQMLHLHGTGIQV
T1 sequence (P29320 with tags, fused parts or gaps limits assumed): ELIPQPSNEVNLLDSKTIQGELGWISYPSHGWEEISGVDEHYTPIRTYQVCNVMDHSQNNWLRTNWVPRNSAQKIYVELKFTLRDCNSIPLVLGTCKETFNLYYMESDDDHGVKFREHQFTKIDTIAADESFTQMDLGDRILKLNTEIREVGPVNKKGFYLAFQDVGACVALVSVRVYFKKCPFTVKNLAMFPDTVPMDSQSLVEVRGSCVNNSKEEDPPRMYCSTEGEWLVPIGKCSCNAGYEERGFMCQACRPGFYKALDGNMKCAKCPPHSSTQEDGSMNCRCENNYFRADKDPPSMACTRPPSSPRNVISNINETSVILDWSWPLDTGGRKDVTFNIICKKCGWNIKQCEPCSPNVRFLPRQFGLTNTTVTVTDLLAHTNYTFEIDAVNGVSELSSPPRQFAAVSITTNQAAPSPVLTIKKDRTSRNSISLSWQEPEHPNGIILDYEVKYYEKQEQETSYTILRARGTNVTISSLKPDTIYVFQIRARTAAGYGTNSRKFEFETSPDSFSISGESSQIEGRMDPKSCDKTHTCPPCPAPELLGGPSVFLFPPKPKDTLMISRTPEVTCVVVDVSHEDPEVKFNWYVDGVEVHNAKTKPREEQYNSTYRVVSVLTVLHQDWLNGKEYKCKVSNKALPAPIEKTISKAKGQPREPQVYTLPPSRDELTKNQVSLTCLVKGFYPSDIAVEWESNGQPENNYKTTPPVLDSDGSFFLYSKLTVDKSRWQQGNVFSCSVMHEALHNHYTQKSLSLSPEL
Chain of Human EphA5 (P54756 25-1037): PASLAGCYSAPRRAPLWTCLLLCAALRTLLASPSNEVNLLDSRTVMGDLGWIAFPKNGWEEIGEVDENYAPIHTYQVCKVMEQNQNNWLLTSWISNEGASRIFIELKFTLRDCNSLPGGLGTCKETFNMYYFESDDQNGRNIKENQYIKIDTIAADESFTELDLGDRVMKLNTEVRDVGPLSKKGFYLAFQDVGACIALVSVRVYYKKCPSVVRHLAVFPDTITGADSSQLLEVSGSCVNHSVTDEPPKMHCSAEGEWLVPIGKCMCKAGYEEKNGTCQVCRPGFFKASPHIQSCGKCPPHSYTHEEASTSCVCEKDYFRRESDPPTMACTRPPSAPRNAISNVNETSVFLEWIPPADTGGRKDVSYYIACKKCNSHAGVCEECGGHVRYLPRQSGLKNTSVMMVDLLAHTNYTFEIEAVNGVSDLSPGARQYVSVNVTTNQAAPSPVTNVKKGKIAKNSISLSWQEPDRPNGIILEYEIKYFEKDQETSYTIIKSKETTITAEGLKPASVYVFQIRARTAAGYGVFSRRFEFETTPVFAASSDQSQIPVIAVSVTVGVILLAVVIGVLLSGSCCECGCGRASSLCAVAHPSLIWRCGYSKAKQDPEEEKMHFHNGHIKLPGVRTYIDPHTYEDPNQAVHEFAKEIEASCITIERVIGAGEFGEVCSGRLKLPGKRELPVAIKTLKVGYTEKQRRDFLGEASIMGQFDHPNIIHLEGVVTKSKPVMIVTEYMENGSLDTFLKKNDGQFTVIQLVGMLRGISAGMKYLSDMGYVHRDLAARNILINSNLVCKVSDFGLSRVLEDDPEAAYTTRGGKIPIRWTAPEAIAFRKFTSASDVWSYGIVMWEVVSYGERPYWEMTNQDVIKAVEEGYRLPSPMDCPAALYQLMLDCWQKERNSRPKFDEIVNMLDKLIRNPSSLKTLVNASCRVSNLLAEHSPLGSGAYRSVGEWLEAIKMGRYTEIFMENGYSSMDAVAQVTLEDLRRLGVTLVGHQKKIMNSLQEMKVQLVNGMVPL

As for `CC(C)C[C@@H]1NC(=O)[C@@H]2CSCCC(=O)N3CN(CN(C3)C(=O)CCSC[C@H](NC(=O)[C@H](CC(=O)O)NC(=O)[C@H](CCCCNC(=N)N)NC(=O)[C@H](C)NC(=O)CN(C)C(=O)CN(C)C(=O)CN(C)C(=O)CN(C)C(=O)CN(C)C(=O)CN(C)C(=O)CN(C)C(=O)CN(C)C(=O)CN(C)C(=O)CN(C)C(=O)CCNC(=O)CN3CCN(CC(=O)O)CCN(CC(=O)O)CCN(CC(=O)O)CC3)C(=O)N3C[C@H](O)C[C@H]3C(=O)N[C@@H](CC3CCC3)C(=O)N[C@@H](C(C)C)C(=O)N[C@@H](CC(N)=O)C(=O)N3CCC[C@H]3C(=O)N[C@@H](CC(C)C)C(=O)N2)C(=O)CCSC[C@@H](C(N)=O)NC(=O)[C@H](CCCCNC(=N)N)NC(=O)[C@H](Cc2c[nH]c3ccccc23)NC(=O)[C@@H](CC(=O)O)NC(=O)[C@@H]2CCCN2C(=O)[C@H](Cc2c[nH]cn2)NC1=O` [BCY18469, [-DOTA]-[B-Ala]-[Sar10]-Ala-[HArg]-Asp-Cys-[HyP]-[Cba]-Val-Asn-Pro-Leu-Cys-Leu-His-Pro-[dAsp]-Trp-[HArg]-Cys-CONH2] ({DOTA-βAla}-[Sar][Sar][Sar][Sar][Sar][Sar][Sar][Sar][Sar][Sar]A[hArg]DC[Hyp][Cba]VNPLCLHP[dD]W[hArg]C-NH2; linker 14-21-28 via TATA), the Kd is more than 5 µM on Human EphA3; 1.93 ± 0.35 nM on Human EphA2 (human EphA2, 25°C, read-out: KD (SPR)); more than 5 µM on Human EphA6; more than 5 µM on Human EphA7; more than 5 µM at Human EphA5. Besides, the kon at Human EphA2 (human EphA2, n=2, read-out: ka) came to 1.82e+06 M⁻¹ s⁻¹.
